Among the data in US20190119200A1, “TERTIARY AMIDES AND METHOD OF USE” (AbbVie Inc., priority 2016, published 2019) are IC50 and Emax values, retold here.

This test deals with T1, LPAR1 (Homo sapiens, UniProt Q92633).
T1 construct: host or cells: U2OS
Kind of test: LPAR1 Arrestin Assay (arrestin reporter assay). Format: cell-based. The conditions noted are these: U2OS cells stably expressing the LPAR1 receptor, 200 nM 18:1 LPA (EC80); for Emax: read-out: Maximum Inhibition. The protocol: One day prior to the experiment, frozen U2OS cells stably expressing the LPAR1 receptor (Life Technologies, Grand Island, N.Y., #K1519A) were thawed, centrifuged at 1,000 rpm for 5 minutes to remove DMSO, and resuspended in FreeStyle™ media (Gibco, Grand Island, N.Y.). Forty microliters of cells were plated into PDL-coated 384-well plates (Greiner Bio-One, Monroe, N.C.) at 10,000 cells/well, and then the plates were incubated overnight in humidified 5% CO2 at 37° C. Test compounds were dissolved in DMSO, and 12-point, 1:3 dilution CRCs were prepared in duplicate; daughter plates were prepared by aliquoting 0.8 μL/well of test compound dilutions into 384-well plates. On the day of the assay, the daughter plates were diluted to 6× stocks using HEPES-buffered HBSS, then 10 μL of 6× test compounds were added to the cells, and the plates were incubated at 37° C. for one hour. After this 1 hour incubation, 10 μL of a 6× stock of the LPAR1 agonist, 18:1 LPA (Avanti Polar Lipids, Alabaster, Ala.), was prepared in HEPES-buffered HBSS+0.1% fatty acid-free BSA (Sigma, St. Louis, Mo.). The 6×LPA was added to all wells for a final concentration of 200 nM, which corresponds to the 18:1 LPA EC80 in this arrestin assay. The final DMSO concentration in the assay plate was 0.1%, and the final BSA concentration was 0.02%. After addition of LPA to all wells, the assay plates were incubated in humidified 5% CO2 at 37° C. for five hours. During the incubation period, 6× dye from the LiveBLAzer™-FRET B/G with CCF4-AM kit (Life Technologies, Grand Island, N.Y.) was prepared according to manufacturers' instructions. At the end of the 5 hour compound incubation, 10 μL of 6× dye was added to each well, and the assay plate was incubated for two hours in the dark at room temperature. Throughout the assay procedure, all volume additions were performed with a Biomek® NX liquid handler (Beckman Coulter, Indianapolis, Ind.). After the 2 hour dye-load, fluorescence was measured on an EnVision® Multilabel Plate Reader (Perkin Elmer, Waltham, Mass.) with an excitation filter at 409/20 nm and emission filters at 460/40 nm and 530/30 nm. Data processing was performed as recommended by the LiveBLAzer™-FRET B/G with CCF4-AM kit manual; all test compound CRCs were performed in duplicate with n≥3.

T1 sequence (Q92633 whole entry): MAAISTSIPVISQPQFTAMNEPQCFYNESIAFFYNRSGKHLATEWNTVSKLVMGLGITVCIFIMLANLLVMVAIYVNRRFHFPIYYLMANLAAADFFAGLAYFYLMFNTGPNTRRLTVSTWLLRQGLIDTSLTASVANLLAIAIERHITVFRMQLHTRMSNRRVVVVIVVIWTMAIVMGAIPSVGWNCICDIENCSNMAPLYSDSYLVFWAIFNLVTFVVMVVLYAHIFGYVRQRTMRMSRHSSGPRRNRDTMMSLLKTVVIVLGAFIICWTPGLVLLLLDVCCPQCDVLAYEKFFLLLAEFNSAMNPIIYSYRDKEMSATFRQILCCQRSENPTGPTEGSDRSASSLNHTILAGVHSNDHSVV

In the case of `COc1cc(C(=O)N(CCCc2ccccc2)CCCC(C)(C)C(=O)O)cc(OC)c1C` [Example 57, 5-[(3,5-dimethoxy-4-methylbenzoyl)(3-phenylpropyl)amino]-2,2-dimethylpentanoic Acid], the concentration for half-maximal inhibition (IC50) is 4 nM and the Emax was 103%.
For the compound `COc1cc(C(=O)N(CCCCC(=O)O)CCCc2cccc(Cl)c2)cc(OC)c1C` [Example 38, 5-{[3-(3-chlorophenyl)propyl](3,5-dimethoxy-4-methylbenzoyl)amino}pentanoic Acid], half-maximal inhibition (IC50) required 26 nM and the Emax worked out at 114%.
In the same order, the values of `COc1cc(C(=O)N(CCCCC(=O)O)CCCc2ccccc2)cc(OC)c1OC` [Example 10, 5-[(3-phenylpropyl)(3,4,5-trimethoxybenzoyl)amino]pentanoic Acid] are 674 nM and 114%.
In the same order, the values of `COc1cc(C(=O)N(CCCc2cccc(Cl)c2)CCSCC(=O)O)cc(OC)c1C` [Example 122, [(2-{[3-(3-chlorophenyl)propyl](3,5-dimethoxy-4-methylbenzoyl)amino}ethyl)sulfanyl]acetic Acid] are 152 nM and 127%.
Take `COc1cc(C(=O)N(CCCCC(=O)O)CCCc2ccc(Cl)o2)cc(OC)c1C` [Example 185, 5-{[3-(5-chlorofuran-2-yl)propyl](3,5-dimethoxy-4-methylbenzoyl)amino}pentanoic Acid]: the IC50 came out at 288 nM and the Emax stood at 122%.
Taken in the same sequence, the figures for `COc1cc(C(=O)N(CCCCC(=O)O)CCCc2ccccc2)cc(OC)c1C` [Example 4, 5-[(3,5-dimethoxy-4-methylbenzoyl)(3-phenylpropyl)amino]pentanoic Acid] were 27 nM and 101%.
In the same order, the values of `COc1cc(C(=O)N(CCCc2ccccc2)CCSC(C)CC(=O)O)cc(OC)c1C` (centres unmarked) [Example 62, 3-({2-[(3,5-dimethoxy-4-methylbenzoyl)(3-phenylpropyl)amino]ethyl}sulfanyl)butanoic Acid] are 39 nM and 114%.
Taken in the same sequence, the figures for `COc1cc(C(=O)N(CCCc2ccccc2)CCSCCC(=O)O)cc(OC)c1C` [Example 60, 3-({2-[(3,5-dimethoxy-4-methylbenzoyl)(3-phenylpropyl)amino]ethyl}sulfanyl)propanoic Acid] were 308 nM and 110%.
Turning to `COc1cc(C(=O)N(CCCCC(=O)O)CCCc2cccc(F)c2)cc(OC)c1C` [Example 33, 5-{(3,5-dimethoxy-4-methylbenzoyl)[3-(3-fluorophenyl)propyl]amino}pentanoic Acid], inhibition was half-maximal at 71 nM (IC50) and the Emax came to 110%.
For `COc1cc(C(=O)N(CCCc2ccccc2)CCSCC(=O)O)cc(OC)c1C` [Example 44, ({2-[(3,5-dimethoxy-4-methylbenzoyl)(3-phenylpropyl)amino]ethyl}sulfanyl)acetic Acid], the IC50 was 69 nM and the Emax is 114%.
Taken in the same sequence, the figures for `COc1cc(C(=O)N(CCCc2ccccc2)CCCC(C)(O)C(=O)O)cc(OC)c1C` (centres unmarked) [Example 155, 5-[(3,5-dimethoxy-4-methylbenzoyl)(3-phenylpropyl)amino]-2-hydroxy-2-methylpentanoic Acid] were 401 nM and 125%.
Regarding `COc1cc(C(=O)N(CCCCC(=O)O)CCCc2ccccc2)cc(OC)c1C1CC1` [Example 35, 5-[(4-cyclopropyl-3,5-dimethoxybenzoyl)(3-phenylpropyl)amino]pentanoic Acid], the IC50 stood at 13 nM and the Emax worked out at 103%.
Turning to `COc1cc(C(=O)N(CCCc2ccccc2)CCOCP(=O)(O)O)cc(OC)c1C` [Example 50, ({2-[(3,5-dimethoxy-4-methylbenzoyl)(3-phenylpropyl)amino]ethoxy}methyl)phosphonic Acid], the IC50 came out at 1 nM and the Emax was 103%.
Taken in the same sequence, the figures for `COc1cc(C(=O)N(CCCc2ccc(C)o2)CCSCC(=O)O)cc(OC)c1C` [Example 132, [(2-{(3,5-dimethoxy-4-methylbenzoyl)[3-(5-methylfuran-2-yl)propyl]amino}ethyl)sulfanyl]acetic Acid] were 490 nM and 126%.
Turning to `COc1cc(C(=O)N(CCCc2cccc(F)c2)CCOCC(=O)O)cc(OC)c1C` [Example 129, (2-{(3,5-dimethoxy-4-methylbenzoyl)[3-(3-fluorophenyl)propyl]amino}ethoxy)acetic Acid], the IC50 turned out to be 218 nM and the Emax was found to be 124%.
Taken in the same sequence, the figures for `COc1cc(C(=O)N(CCCc2ccccc2Cl)CCOCC(=O)O)cc(OC)c1C` [Example 131, (2-{[3-(2-chlorophenyl)propyl](3,5-dimethoxy-4-methylbenzoyl)amino}ethoxy)acetic Acid] were 2140 nM and 120%.
Taken in the same sequence, the figures for `COc1cc(C(=O)N(CCCc2ccccc2)CCOCC(=O)NS(C)(=O)=O)cc(OC)c1C` [Example 157, N-(2-{2-[(methanesulfonyl)amino]-2-oxoethoxy}ethyl)-3,5-dimethoxy-4-methyl-N-(3-phenylpropyl)benzamide] were 108 nM and 128%.
Consider `COc1cc(C(=O)N(CCCc2ccccc2)CCOCC(=O)O)cc(OC)c1C` [Example 6, {2-[(3,5-dimethoxy-4-methylbenzoyl)(3-phenylpropyl)amino]ethoxy}acetic Acid], for which 126 nM corresponded to half-maximal inhibition (IC50) and the Emax was found to be 130%.
Taken in the same sequence, the figures for `COc1cc(C(=O)N(CCCc2ccccc2)CC(=O)NC2(C(=O)O)CC2)cc(OC)c1C` [Example 3, 1-{[N-(3,5-dimethoxy-4-methylbenzoyl)-N-(3-phenylpropyl)glycyl]amino}cyclopropane-1-carboxylic Acid] were 2230 nM and 110%.
For `COc1ccc(C2(C(=O)N(CCCCC(=O)O)CCCc3ccccc3)CC2)cc1` [Example 8, 5-{[1-(4-methoxyphenyl)cyclopropane-1-carbonyl](3-phenylpropyl)amino}pentanoic Acid], the IC50 was 691 nM and the Emax amounted to 112%.
`COc1cc(C(=O)N(CCCCC(=O)O)CCCc2ccco2)cc(OC)c1C` [Example 173, 5-{(3,5-dimethoxy-4-methylbenzoyl)[3-(furan-2-yl)propyl]amino}pentanoic Acid]: half-maximal inhibition (IC50) required 295 nM and the Emax was determined as 122%.
In the same order, the values of `COc1cc(C(=O)N(CCCCC(=O)NS(C)(=O)=O)CCCc2ccccc2)cc(OC)c1C` [Example 111, N-{5-[(methanesulfonyl)amino]-5-oxopentyl}-3,5-dimethoxy-4-methyl-N-(3-phenylpropyl)benzamide] are 93 nM and 116%.
Turning to `COc1cc(C(=O)N(CCCCC(=O)O)CCCc2ccccc2)cc(OC)c1Br` [Example 20, 5-[(4-bromo-3,5-dimethoxybenzoyl)(3-phenylpropyl)amino]pentanoic Acid], the IC50 was found to be 43 nM and the Emax is 101%.
Take `COc1cc(C(=O)N(CCCCC(=O)O)CCCc2ccc(F)cc2)cc(OC)c1C` [Example 34, 5-{(3,5-dimethoxy-4-methylbenzoyl)[3-(4-fluorophenyl)propyl]amino}pentanoic Acid]: 391 nM corresponded to half-maximal inhibition (IC50) and the Emax worked out at 115%.
With `COc1ccc(C2(C(=O)N(CCCc3ccccc3)CCSCC(=O)O)CC2)cc1` [Example 115, [(2-{[1-(4-methoxyphenyl)cyclopropane-1-carbonyl](3-phenylpropyl)amino}ethyl)sulfanyl]acetic Acid], the IC50 stood at 1080 nM and the Emax stood at 104%.
Taken in the same sequence, the figures for `COc1cc(C(=O)N(CCCc2ccccc2F)CCOCC(=O)O)cc(OC)c1C` [Example 110, (2-{(3,5-dimethoxy-4-methylbenzoyl)[3-(2-fluorophenyl)propyl]amino}ethoxy)acetic Acid] were 706 nM and 110%.
Regarding `COc1cc(C(=O)N(CCCCC(=O)O)CCCc2ccccc2)cc(OC)c1C(F)(F)F` [Example 37, 5-{[3,5-dimethoxy-4-(trifluoromethyl)benzoyl](3-phenylpropyl)amino}pentanoic Acid], half-maximal inhibition (IC50) required 231 nM and the Emax was determined as 122%.
Taken in the same sequence, the figures for `COc1cc(OC)cc(C(=O)N(CCCCC(=O)O)CCCc2cccc(Cl)c2)c1` [Example 91, 5-{[3-(3-chlorophenyl)propyl](3,5-dimethoxybenzoyl)amino}pentanoic Acid] were 293 nM and 120%.
